Source: ChEMBL document CHEMBL1152971, “Cycloartane triterpenoids from Kleinhovia hospita” (J Nat Prod, 2009)
pEC50: −log10 of the molar value.

What follows are compounds tested on HepG2 (assay: Hepatoprotective activity against nitrofurantoin-induced cytotoxicity in human HepG2 cells after 2 hrs by MTT assay). Conditions: HepG2, 2 h.
Assay type: functional, cell-based

Structure (SMILES) | pEC50
CO[C@H]1O[C@]2(C=C(C)C(=O)O2)C[C@@H]1[C@H]1CC[C@@]2(C)[C@@H]3CC[C@H]4C(C)(C)C(=O)C=C[C@@]45C[C@@]35CC[C@]12C | 3.91
CC(C)=CC(=O)C[C@@H](C)[C@H]1CC[C@@]2(C)[C@@H]3CC[C@H]4C(C)(C)C(=O)C=C[C@@]45C[C@@]35CC[C@]12C | 3.96
CC(C)=CC(=O)C[C@@H](C)[C@H]1CC[C@@]2(C)[C@@H]3CC[C@H]4[C@](C)(C(=O)O)[C@@H](O)C[C@H](O)[C@@]45C[C@@]35CC[C@]12C [GARDENOLIC ACID B] | 4.18
COc1cc(C2Oc3cc([C@H]4Oc5cc(O)cc(O)c5C(=O)[C@@H]4O)ccc3OC2CO)ccc1O (some centres undefined) [SILIBININ] | 4.12
